Test results: patent US4444776A, “Dipyrido (4,3-B) (3,4-F) indoles, process for obtaining them, therapeutical use and pharmaceutical compositions” (priority 1977, dated 1984)

Legend:
[1] = test system: L1210 cells; experiment: Test 19: effect of time of administration, L1210 (Table XIV); assay type: in vivo, mouse; parameters: MST: unit not given beside the values; conditions: 20 mg/kg IP
Excerpt: Test 19: Effect of the time of administration of compound 21
The non-protective effect at day+7 could be explained by the fact that some cells migrate through a compartment inaccessible to the drug (as postulated by J. B. Le Pecq for the 9-hydroxy-ellipticine).

[2] = test system: new-born mice; experiment: Test 4: toxicity on new-born mice, IP; assay type: in vivo, mouse; conditions: new-born mice
Excerpt: Test 4: Investigation of the toxicity
The toxic dose has been sought, on adult ([…]×DBA/2) Fl mice and on new-born mice, of the compounds of the invention by injection by the IP route. The results obtained are given hereinafter:
2-On new-born mice (IP route)

[3] = test system: L1210 leukemia; experiment: Test 18: dose-L1210 antitumoral activity of compound 21; assay type: in vivo, mouse
Excerpt: Test 18: Relationship between dose and L1210 antitumoral activity of compound 21 […]

[4] = test system: L 1210 leukemia; experiment: Test 11: L 1210 leukemic mice, examples 7 and 8 (Table VIII); assay type: in vivo, mouse; parameters: MTS: unit not given beside the values; conditions: J+1
Experimental: This test was carried out with 10^3, 10^4 and 10^5 leukemic cells on day J. This test was also carried out with the compound of example 7, i.e. 1-[(γ-diethylaminopropyl)amino]-5-methyl-dipyrido [4,3-b][3,4-f] indole (compound 21).

[5] = test system: L1210 leukemia; experiment: Test 16: structure-activity of R'1 substitution, L1210 (Table XII); assay type: in vivo, mouse (C57B16xDBA/2)F1; parameters: MST: unit not given here; conditions: for 60 days surv. / ILS % / MST / Range of death: day +1
[6] = test system: L1210 leukemia; experiment: Test 17: length of substituting chain, L1210 (Table XIII); assay type: in vivo, mouse
Experimental: Test 17: Relationship between the length of the substituting chain and the activity.
However compound 21 is less toxic (50 mg/kg for compound 21 and 25 mg/kg for compound 23), it has a higher ILS% than compound 23 and 1 mouse survived up to 60 days.

[7] = test system: replication of the DNA; experiment: Test 6: DNA replication in synchronised cells; assay type: cell-based; conditions: first minutes following addition
[8] = test system: L1210 leukemia; experiment: Test 15: L1210 leukemia, compound of formula 8 (Table XI); assay type: in vivo, mouse; conditions: for ILS % / MST / Range of death: 50 mg/kg
Experimental: The proceeding of test 1 was repeated with the compound of formula 8 obtained according to example 1, i.e. 5,11-dimethyl-dipyrido[4,3-b][3,4-f]indole. In this test, the compound of formula 8 was injected four days after the inoculation of the cells (50 mg/kg). The results are shown in table XI wherein the results obtained with the same compound injected one day after the cell inoculation are also reported (see experiment no. 2 in table I).

[9] = 10^4 cells, 5 mg/kg, control MST 11.8
[10] = second group: 10^4 cells, 5 mg/kg, control MST 10.9

CCN(CC)CCCNc1nccc2c(C)c3[nH]c4ccncc4c3cc12 [Example 7, 1-(γ-diethylaminopropyl)amino-5-methyl-dipyrido-[4,3-b][3,4-f] indole] was tested, and the ILS % ([1]; day +2) was 56.4%, the MST ([1]; day +2) was 15.8 and the Range of death ([1]; day +2, 10^4 cells) was 15-17. The MST ([1]; day +3) was 14.4, the Range of death ([1]; day +3) was 12-17 and the ILS % ([1]; day +3, listed as BD 40) was 43.0%. It also gave an ILS % ([1]; day +3, listed as Compound 21) of 43%, an ILS % ([1]; day +4) of 22.8% and an MST ([1]; day +4) of 12.4. The Range of death ([1]; day +4) was 10-14, the ILS % ([1]; day +5) was 17.8% and the MST ([1]; day +5) was 11.9. The Range of death ([1]; day +5) was 10-13, the ILS % ([1]; day +6) was 20.8% and the MST ([1]; day +6) was 12.2. The Range of death ([1]; day +6) was 10-14, the MST ([1]; day +7) was 10.3 and the Range of death ([1]; day +7) was 10-13. For the same compound, the ILS % ([1]; day +7, listed as BD 40) was 2.0%, the ILS % ([1]; day +7, listed as Compound 21) was 2% and the toxic dose [2] was “higher than 2.5 mg/kg of mouse”. For the same compound, the ILS ([3]; 5 mg/kg) was 87%, the ILS ([3]; 10 mg) was 52% and the “inoculated mice surviving up to 60 days” value ([3]; 20 mg per kg) was 20%. For the same compound, the ILS ([3]; 20 mg/kg) was 75%, the “inoculated mice surviving up to 60 days” value ([3]; 100mg (so in the source)) was 10% and the ILS % ([4]; 10^3 cells, 0.1 mg/mouse) was 15.4%. The MTS ([4]; 10^3 cells, 0.1 mg/mouse) was 15, the “Number of surviving mice” value ([4]; 10^3 cells, 0.1 mg/mouse) was 4 and the ILS % ([4]; 10^3 cells, 0.2 mg/mouse) was 25.4%. For the same compound, the MTS ([4]; 10^3 cells, 0.2 mg/mouse) was 16.3, the “Number of surviving mice” value ([4]; 10^3 cells, 0.2 mg/mouse) was 7 and the ILS % ([4]; 10^4 cells, 0.1 mg/mouse) was 65.1%. For the same compound, the MTS ([4]; 10^4 cells, 0.1 mg/mouse) was 18, the “Number of surviving mice” value ([4]; 10^4 cells, 0.1 mg/mouse) was 1 and the 60 days surv. ([5]; 10^3 cells, 0.5 mg/kg) was 3. For the same compound, the ILS % ([5]; 10^3 cells, 0.5 mg/kg) was 17.4%, the MST ([5]; 10^3 cells, 0.5 mg/kg) was 16.2 and the Range of death ([5]; 10^3 cells, 0.5 mg/kg) was 14-20. For the same compound, the 60 days surv. ([5]; 10^3 cells, 5 mg/kg) was 5, the ILS % ([5]; 10^3 cells, 5 mg/kg) was 23.2% and the MST ([5]; 10^3 cells, 5 mg/kg) was 17. For the same compound, the Range of death ([5]; 10^3 cells, 5 mg/kg) was 15-22, the 60 days surv. ([5]; 10^4 cells, 0.5 mg/kg) was 0 and the ILS % ([5]; 10^4 cells, 0.5 mg/kg) was 11.5%. For the same compound, the MST ([5]; 10^4 cells, 0.5 mg/kg) was 13.54, the Range of death ([5]; 10^4 cells, 0.5 mg/kg) was 11-15 and the 60 days surv. [5, 9] was 1. The ILS % [5, 9] was 33.3%, the MST [5, 9] was 16.2 and the Range of death [5, 9] was 13-21. The “antitumoral activity compared with Ellipticinium acetate (HUM)” value ([5]; Table XII summary) was “compete favorably with Ellipticinium acetate (HUM)”, the 60 days surv. [5, 10] was 1 and the ILS % [5, 10] was 65.1%. The MST [5, 10] was 18, the Range of death [5, 10] was 14-21 and the “activity against L1210 leukemia (in words)” value ([6]; Table XIII summary) was “the compound the most active on the mice”. The ILS % ([6]; day +1) was 69.2%, the “Survivors up to 60 days” value ([6]; day +1) was 1 and the MST ([6]; day +1, control MST 8.8) was 14.9. For the same compound, the Range of death ([6]; day +1, control MST 8.8) was 12-18, the ILS % ([6]; day +4) was 65.6% and the “Survivors up to 60 days” value ([6]; day +4) was 0. For the same compound, the MST ([6]; day +4, control MST 11.2) was 18.5 and the Range of death ([6]; day +4, control MST 11.2) was 14-32.
Cc1c2ccncc2c(C)c2c1[nH]c1ccncc12 [Example 1, 5,11-dimethyl dipyrido [4,3-b][3,4-f] indole] was tested, and the “replication of the DNA, initiation and elongation steps” value [7] was “stops, in the first minutes following its addition, the replication of the DNA”, the ILS % ([8]; 10^4 cells, day +1) was 11.8% and the MST ([8]; 10^4 cells, day +1) was 12.3 days. For the same compound, the Range of death ([8]; 10^4 cells, day +1) was 11-14, the ILS % ([8]; 10^4 cells, day +4) was 14.7% and the MST ([8]; 10^4 cells, day +4) was 12 days. The Range of death ([8]; 10^4 cells, day +4) was 10-16, the ILS % ([8]; 10^5 cells, day +1) was 38.1% and the MST ([8]; 10^5 cells, day +1) was 12.85 days. For the same compound, the Range of death ([8]; 10^5 cells, day +1) was 10-13, the ILS % ([8]; 10^5 cells, day +4) was 15.7% and the MST ([8]; 10^5 cells, day +4) was 10.3 days. The Range of death ([8]; 10^5 cells, day +4) was 10-11, the ILS % ([8]; 10^6 cells, day +1) was 47.3% and the MST ([8]; 10^6 cells, day +1) was 11.5 days. For the same compound, the Range of death ([8]; 10^6 cells, day +1) was 9-15, the ILS % ([8]; 10^6 cells, day +4) was 34.3% and the MST ([8]; 10^6 cells, day +4) was 9 days. The Range of death ([8]; 10^6 cells, day +4) was 8-13 and the “increased life span (ILS %), early vs late administration” value ([8]; product given earlier after the cells inoculum) was “higher when the product was given earlier”.
